Source: US9682033B2, “Methods of treating postherpetic neuralgia with a topical formulation of a spiro-oxindole compound” (Teva Pharmaceuticals International GmbH, priority 2015, dated 2017)

Assays:
CYP3A4 = CYP3A4 (Homo sapiens, UniProt P08684); test: Drug-drug interaction study in healthy subjects: midazolam (CYP3A4 substrate) pharmacokinetics (Biological Example 5); conditions: for Tmax / AUC(0-inf) / AUC(0-t) / Cmax: both, human, in vivo; for AUC(0-inf) / AUC(0-t) / Cmax: 3 mg
Source text: (§1) This was a single center, open-label, 1-sequence drug-drug interaction study in 32 healthy adult male and female subjects. The study consisted of a 28-day screening period, a 10-day inpatient treatment period, and a follow-up visit. Subjects meeting the study inclusion/exclusion requirements were admitted to the clinical research unit on day −1 and were confined until day 10.
(§2) Blood samples were collected for the assessment of the pharmacokinetics of midazolam and omeprazole.
(§3) The primary pharmacokinetic endpoints were the geometric mean ratios (90% confidence intervals [CIs]) for Cmax, AUC0-t, and AUC0-inf for midazolam and omeprazole on day 9 versus day 1.
(§4) Blood samples were collected for the assessment of the pharmacokinetics of the major metabolites of midazolam (1-OH-midazolam) and omeprazole (5-OH-omeprazole), and for the spiro-oxindole compound. Further secondary pharmacokinetic variables included Cmax, tmax, AUC0-t, AUC0-inf, CL/F, λz, t1/2, and % AUCext for 1-OH-midazolam and 5-OH-omeprazole, on days 1 and 9, and Cmax, morning predose concentrations (Ctrough), average plasma concentration over the dosing interval (Cave), and area under the plasma concentration-time curve over the dosing interval (AUC0-τ) were presented for the spiro-oxindole compound.
(§5) Descriptive statistics (n, mean, geometric mean, standard deviation [SD], % CV, median, minimum, and maximum) were used to summarize plasma midazolam, omeprazole and their metabolites, and the spiro-oxindole compound concentration for all subjects overall at each scheduled time point. Descriptive statistics (as noted above) were also used to summarize plasma omeprazole, 5-OH-omeprazole, and the spiro-oxindole compound concentration for all subjects overall by CYP2C19 genotype at each scheduled time point. Pharmacokinetic parameters were derived by noncompartmental analysis. Descriptive statistics (as noted above) were used to summarize the calculated pharmacokinetic parameters for midazolam, omeprazole and their metabolites, and the spiro-oxindole compound by treatment for all subjects. Descriptive statistics (as noted above) were also used to summarize the calculated pharmacokinetic parameters for omeprazole, 5-OH-omeprazole, and the spiro-oxindole compound by treatment and CYP2C19 genotype. Plots of geometric mean and individual plasma concentrations and of select pharmacokinetic parameters for midazolam, omeprazole and their metabolites and the spiro-oxindole compound at select sampling times were provided. Additionally, plots of individual select pharmacokinetic parameters by CYP2C19 phenotype for omeprazole at select time points were provided.

[1] = test system: streptozotocin-induced neuropathic pain model; test: Streptozotocin-induced neuropathic pain model, mechanical allodynia (paw withdrawal threshold); format: in vivo, rats; conditions: rats, topical, 30 minutes after the dose
Source text: Topical 4% Test Pharmaceutical Composition was compared with lidocaine and diclofenac for relief of mechanical allodynia in the streptozotocin-induced neuropathic pain model in rats.

CYP2C19 = test: clinical; conditions: both, human, in vivo, 20 mg
Source text: as §1, §2, §3, §4, §5

[2] = 1-OH metabolite after oral midazolam, day 1
[3] = 1-OH metabolite after oral midazolam, day 9

CYP3A4, sequence (P08684 whole entry): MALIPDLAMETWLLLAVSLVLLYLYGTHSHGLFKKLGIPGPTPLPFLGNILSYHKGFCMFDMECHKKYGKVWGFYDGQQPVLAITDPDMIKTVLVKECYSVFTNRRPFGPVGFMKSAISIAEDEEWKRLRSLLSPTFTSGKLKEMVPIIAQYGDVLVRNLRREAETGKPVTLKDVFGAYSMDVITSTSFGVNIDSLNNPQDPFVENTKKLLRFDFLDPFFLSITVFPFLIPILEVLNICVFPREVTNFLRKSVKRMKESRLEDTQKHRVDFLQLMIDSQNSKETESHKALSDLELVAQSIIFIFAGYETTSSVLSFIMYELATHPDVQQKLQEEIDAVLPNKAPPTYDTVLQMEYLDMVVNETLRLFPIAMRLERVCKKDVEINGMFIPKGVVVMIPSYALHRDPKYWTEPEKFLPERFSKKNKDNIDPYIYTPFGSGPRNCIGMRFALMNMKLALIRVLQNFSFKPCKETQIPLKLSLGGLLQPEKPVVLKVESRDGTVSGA

OCc1ncc2n1-c1ccc(Cl)cc1C(c1ccccc1F)=NC2 [1-OH-midazolam]
tmax (median) (CYP3A4; 1-OH metabolite after oral midazolam, both days 1 and 9): 45 min | AUC0-inf (geometric) (CYP3A4; [2]): 16.83 ng·h/mL | AUC0-t (geometric) (CYP3A4; [2]): 15.82 ng·h/mL | Cmax (geometric mean) (CYP3A4; [2]): 7.33 ng/mL | t1/2 (geometric mean) (CYP3A4; [2]): 4.39 h | AUC0-t (geometric) (CYP3A4; [3]): 17.18 ng·h/mL | Cmax (geometric mean) (CYP3A4; [3]): 6.67 ng/mL | t1/2 (geometric mean) (CYP3A4; [3]): 4.68 h

O=C(O)Cc1ccccc1Nc1c(Cl)cccc1Cl [diclofenac]
paw withdrawal threshold for the drug-treated paw (mechanical hyperalgesia) [1]: no significant increase in threshold

CCN(CC)CC(=O)Nc1c(C)cccc1C [lidocaine]
paw withdrawal threshold for the drug-treated paw (mechanical hyperalgesia) [1]: no significant increase in threshold

Cc1ncc2n1-c1ccc(Cl)cc1C(c1ccccc1F)=NC2 [midazolam, reference compound]
Tmax (CYP3A4): 45 min | AUC(0-inf) (CYP3A4): 40.7 ng·h/mL | AUC(0-t) (CYP3A4): 39.4 ng·h/mL | Cmax (CYP3A4): 14.6 ng/mL | Tmax (CYP3A4; po): 37.8 min | AUC(0-inf) (CYP3A4; po): 43.8 ng·h/mL | AUC(0-t) (CYP3A4; po): 42.2 ng·h/mL | Cmax (CYP3A4; po): 16.9 ng/mL

COc1ccc2[nH]c([S+]([O-])Cc3ncc(C)c(OC)c3C)nc2c1 (centres unmarked) [omeprazole]
Tmax (CYP2C19): 2.5 h | AUC0-inf (geometric mean) (CYP2C19; po): 633.97 ng·h/mL | AUC0-t (geometric mean) (CYP2C19; po): 556.16 ng·h/mL | Cmax (geometric mean) (CYP2C19; po): 227.04 ng/mL | Tmax (CYP2C19; po): 2 h | AUC(0-inf) (CYP2C19; po, AUC0-inf (geometric mean)): 635 ng·h/mL | AUC(0-t) (CYP2C19; po, AUC0-t (geometric mean)): 545 ng·h/mL | Cmax (CYP2C19; po, Cmax (geometric mean)): 227 ng/mL
